According to ChEMBL document CHEMBL1151930, “Physicochemical determinants of human renal clearance” (J Med Chem, 2009):

Experiment: Total body clearance in human
Details: in vivo

Compound | clearance [mL/min/kg]
COc1cccc2c1C(=O)c1c(O)c3c(c(O)c1C2=O)C[C@@](O)(C(=O)CO)C[C@@H]3O[C@H]1C[C@H](N)[C@@H](O)[C@H](C)O1 [EPIRUBICIN] | 20
CC(C)N(CCC(C(N)=O)(c1ccccc1)c1ccccn1)C(C)C (configuration not stated) [DISOPYRAMIDE] | 0.9
CNCCC=C1c2ccccc2CCc2ccccc21 [NORTRIPTYLINE] | 10
Cc1cc(NC(=O)C2=C(O)c3ccccc3S(=O)(=O)N2C)no1 [ISOXICAM] | 0.07
CN1C(=O)C(O)N=C(c2ccccc2Cl)c2cc(Cl)ccc21 (configuration not stated) [LORMETAZEPAM] | 4
COCCCOc1ccnc(C[S+]([O-])c2nc3ccccc3[nH]2)c1C (configuration not stated) [RABEPRAZOLE] | 4
CCC1=C(C)CN(C(=O)NCCc2ccc(S(=O)(=O)NC(=O)N[C@H]3CC[C@H](C)CC3)cc2)C1=O [GLIMEPIRIDE] | 0.5
O=P1(N(CCCl)CCCl)NCCCO1 (configuration not stated) [CYCLOPHOSPHAMIDE ANHYDROUS] | 1.1

Experiment: clinical
Details: human, in vivo

Compound | CL renal [mL/min/kg]
COc1cccc2c1C(=O)c1c(O)c3c(c(O)c1C2=O)C[C@@](O)(C(=O)CO)C[C@@H]3O[C@H]1C[C@H](N)[C@@H](O)[C@H](C)O1 [EPIRUBICIN] | 2.44
CC(C)N(CCC(C(N)=O)(c1ccccc1)c1ccccn1)C(C)C (configuration not stated) [DISOPYRAMIDE] | 0.5
CNCCC=C1c2ccccc2CCc2ccccc21 [NORTRIPTYLINE] | 0.2
CN(C)CCc1c[nH]c2ccc(CS(=O)(=O)N3CCCC3)cc12 [ALMOTRIPTAN] | 5.79
NC(N)=Nc1nc(CSCCC(N)=NS(N)(=O)=O)cs1 [FAMOTIDINE] | 4.42
CC(C)(C)NC(=O)[C@@H]1CN(Cc2cccnc2)CCN1C[C@@H](O)C[C@@H](Cc1ccccc1)C(=O)N[C@H]1c2ccccc2C[C@H]1O.O | 1.53
Nc1c2c(nc3ccccc13)CCCC2 [TACRINE] | 1.68
O=C1c2c(O)ccc(O)c2C(=O)c2c(NCCNCCO)ccc(NCCNCCO)c21 [MITOXANTRONE] | 0.5
CC(=O)O[C@@]12CO[C@@H]1C[C@H](O)[C@@]1(C)C(=O)[C@H](O)C3=C(C)[C@@H](OC(=O)[C@H](O)[C@@H](NC(=O)OC(C)(C)C)c4ccccc4)C[C@@](O)([C@@H](OC(=O)c4ccccc4)[C@H]21)C3(C)C.O.O.O [DOCETAXEL] | 0.29
Cn1nnnc1SCC1=C(C(=O)O)N2C(=O)[C@@H](NC(=O)[C@H](O)c3ccccc3)[C@H]2SC1 [CEFAMANDOLE] | 2.7
NNc1nncc2ccccc12 [HYDRALAZINE] | 10.8
C[C@@H](O)[C@H]1C(=O)N2C(C(=O)O)=C(S[C@@H]3CN[C@H](C(=O)N(C)C)C3)[C@H](C)[C@H]12 [MEROPENEM] | 2.73
CCCCCN(CCCOC)C(=O)[C@@H](CCC(=O)O)NC(=O)c1ccc(Cl)c(Cl)c1 [DEXLOXIGLUMIDE] | 0.41
CC(C)c1nc(N(C)S(C)(=O)=O)nc(-c2ccc(F)cc2)c1/C=C/[C@@H](O)C[C@@H](O)CC(=O)O [ROSUVASTATIN] | 3.3
CC(C)(C)NCC(O)COc1ccc(NC(=O)NC2CCCCC2)cc1 (configuration not stated) [TALINOLOL] | 2.6
CN1CCN(c2c(F)cc3c(=O)c(C(=O)O)cn(CCF)c3c2F)CC1 [FLEROXACIN] | 1.49
COc1ccccc1OCCNCC(O)COc1cccc2[nH]c3ccccc3c12 (configuration not stated) [CARVEDILOL] | 0.1
CCO[C@@H](Cc1ccc(OCCc2ccc(OS(C)(=O)=O)cc2)cc1)C(=O)O [TESAGLITAZAR] | 0.01
CCOC(=O)C1(c2ccccc2)CCC=CC1N(C)C (configuration not stated) [TILIDINE] | 0.26
COc1ccc(CCNCC(O)COc2cccc(C)c2)cc1OC (configuration not stated) [BEVANTOLOL] | 0.06
CN[C@@H]1CCc2[nH]c3ccc(C(N)=O)cc3c2C1 [FROVATRIPTAN] | 1.04
CC(C)(C)NC(=O)[C@H]1CC[C@H]2[C@@H]3CC[C@H]4NC(=O)C=C[C@]4(C)[C@H]3CC[C@]12C [FINASTERIDE] | 0.02
CN(C)CCC(c1ccc(Cl)cc1)c1ccccn1 (configuration not stated) [CHLORPHENIRAMINE] | 0.43
CC[C@H](C)C(=O)O[C@H]1C[C@@H](C)C=C2C=C[C@H](C)[C@H](CC[C@@H]3C[C@@H](O)CC(=O)O3)[C@H]21 [LOVASTATIN] | 0.72
CC(=O)Nc1c(I)c(C(=O)O)c(I)c(N(C)C(C)=O)c1I [METRIZOIC ACID] | 2.53
CO/N=C(\C(=O)N[C@@H]1C(=O)N2C(C(=O)O)=C(COC(C)=O)CS[C@H]12)c1csc(N)n1 [CEFOTAXIME] | 1.37
CO[C@@]1(NC(=O)C(C(=O)O)c2ccc(O)cc2)C(=O)N2C(C(=O)O)=C(CSc3nnnn3C)CO[C@@H]21 (some centres not stated) [MOXALACTAM] | 0.63

Compound | CL renal [mL/min/kg]
COCC(=O)Nc1c(I)c(C(=O)NCC(O)CO)c(I)c(C(=O)N(C)CC(O)CO)c1I (configuration not stated) [IOPROMIDE] | 1.37
C=CCc1ccccc1OCC(O)CNC(C)C (configuration not stated) [ALPRENOLOL] | 0.6
O=C(c1ccc(F)cc1)C1CCN(CCn2c(=O)[nH]c3ccccc3c2=O)CC1 [KETANSERIN] | 0.05
CC(C)NCC(O)COc1cccc2ccccc12 (configuration not stated) [PROPRANOLOL] | 1.2
Cc1ncsc1CCCl [CLOMETHIAZOLE] | 0.03
Nc1ccc(S(=O)(=O)c2ccc(N)cc2)cc1 [DAPSONE] | 0.05
CN(C)CCCN1c2ccccc2CCc2cc(O)ccc21 [2-HYDROXYIMIPRAMINE] | 0.3
O=P1(NCCCl)OCCCN1CCCl (configuration not stated) [IFOSFAMIDE] | 0.58
Cc1c(OCC(F)(F)F)ccnc1C[S+]([O-])c1nc2ccccc2[nH]1 (configuration not stated) [LANSOPRAZOLE] | 0.04
CO/N=C(\C(=O)N[C@@H]1C(=O)N2C(C(=O)O)=C(CSc3nc(=O)c(=O)[nH]n3C)CS[C@H]12)c1csc(N)n1 [CEFTRIAXONE] | 0.12
CC(C)(C)NCC(O)COc1cccc2c1CC(O)C(O)C2 (configuration not stated) [NADOLOL] | 1.8
CC(C)(C)NCC(O)c1cc(O)cc(O)c1 (configuration not stated) [TERBUTALINE] | 2.2
O=C1Cc2cc(CCN3CCN(c4nsc5ccccc45)CC3)c(Cl)cc2N1 [ZIPRASIDONE] | 0.05
CCOc1cc(CC(=O)N[C@@H](CC(C)C)c2ccccc2N2CCCCC2)ccc1C(=O)O [REPAGLINIDE] | 0.12
CN(C)C(=O)Oc1ccc[n+](C)c1 [PYRIDOSTIGMINE] | 7.2
CC[C@@]1(O)C(=O)OCc2c1cc1n(c2=O)Cc2cc3c(CN(C)C)c(O)ccc3nc2-1 [TOPOTECAN] | 5.2
Oc1ccc2c(c1)[C@@]13CCCC[C@@]1(O)[C@@H](C2)N(CC1CCC1)CC3 [BUTORPHANOL] | 2.05
COc1ccc2c(c1)c(CC(=O)O)c(C)n2C(=O)c1ccc(Cl)cc1 [INDOMETHACIN] | 0.2
CN(C)CCC=C1c2ccccc2CCc2ccccc21 [AMITRIPTYLINE] | 0.12
CC(C)(O/N=C(\C(=O)N[C@@H]1C(=O)N2C(C(=O)[O-])=C(C[n+]3ccccc3)CS[C@H]12)c1csc(N)n1)C(=O)O [CEFTAZIDIME] | 2.13
CN(C)Cc1nnc2n1-c1ccc(Cl)cc1C(c1ccccc1)=NC2 [ADINAZOLAM] | 2.6
O=C(O)CCCc1ccc(N(CCCl)CCCl)cc1 [CHLORAMBUCIL] | 0.03
C[C@@H]1CN(c2c(F)c(N)c3c(=O)c(C(=O)O)cn(C4CC4)c3c2F)C[C@H](C)N1 [SPARFLOXACIN] | 0.4
CCOC(=O)C1(c2ccccc2)CCN(C)CC1 [MEPERIDINE] | 0.25
CCN(CC)CCNC(=O)c1ccc(NS(C)(=O)=O)cc1 [SEMATILIDE] | 3.5
Nc1ccc(S(=O)(=O)Nc2ncccn2)cc1 [SULFADIAZINE] | 0.34
Cc1onc(-c2ccccc2)c1C(=O)N[C@@H]1C(=O)N2[C@@H]1SC(C)(C)[C@@H]2C(=O)O [OXACILLIN] | 2.6

Compound | CL renal [mL/min/kg]
Oc1ccc2c3c1O[C@H]1[C@@H](O)CC[C@@]4(O)[C@@H](C2)N(CC2CCC2)CC[C@]314 [NALBUPHINE] | 0.95
O=C1CN=C(c2ccccc2)c2cc([N+](=O)[O-])ccc2N1 [NITRAZEPAM] | 0.01
COC(=O)Nc1nc2ccc(C(=O)c3ccccc3)cc2[nH]1 [MEBENDAZOLE] | 0.17
CC1(C)S[C@@H]2[C@H](NC(=O)[C@H](N)c3ccccc3)C(=O)N2[C@H]1C(=O)O [AMPICILLIN] | 1.2
CC(CN1c2ccccc2Sc2ccccc21)N(C)C (configuration not stated) [PROMETHAZINE] | 0.14
COc1ccc(C(CN(C)C)C2(O)CCCCC2)cc1 (configuration not stated) [VENLAFAXINE] | 0.64
CNC(=C[N+](=O)[O-])NCCSCc1csc(CN(C)C)n1 [NIZATIDINE] | 7.35
COc1ccc2c3c1O[C@H]1[C@@H](O)C=C[C@H]4[C@@H](C2)N(C)CC[C@@]341 [CODEINE] | 1.7
C[C@H](N[C@@H](CCc1ccccc1)C(=O)O)C(=O)N1Cc2ccccc2C[C@H]1C(=O)O | 0.9
CN1Cc2c(N)cccc2C(c2ccccc2)C1 (configuration not stated) [NOMIFENSINE] | 12.5
C[C@H]1O[C@@H](n2cc(F)c(=O)[nH]c2=O)[C@H](O)[C@@H]1O [DOXIFLURIDINE] | 4.3
CC1CCCC(C)N1CCCC(O)(c1ccccc1)c1ccccn1 (configuration not stated) [PIRMENOL] | 0.72
COc1ccc(C(=O)Nc2ccccc2CCC2CCCCN2C)cc1 (configuration not stated) [ENCAINIDE] | 0.78
CNS(=O)(=O)Cc1ccc2[nH]cc(CCN(C)C)c2c1 | 3.7
O=c1[nH]cc(F)c(=O)[nH]1 [FLUOROURACIL] | 1.1
CCCCCCCCCC(=O)N[C@@H](Cc1c[nH]c2ccccc12)C(=O)N[C@H](CC(N)=O)C(=O)N[C@@H](CC(=O)O)C(=O)N[C@@H]1C(=O)NCC(=O)N[C@@H](CCCN)C(=O)N[C@@H](CC(=O)O)C(=O)N[C@H](C)C(=O)N[C@@H](CC(=O)O)C(=O)NCC(=O)N[C@H](CO)C(=O)N[C@@H]([C@H](C)CC(=O)O)C(=O)N[C@@H](CC(=O)c2ccccc2N)C(=O)O[C@@H]1C | 0.09
CCOc1ccc2ccccc2c1C(=O)N[C@@H]1C(=O)N2[C@@H]1SC(C)(C)[C@@H]2C(=O)O [NAFCILLIN] | 1.03
O=P(O)(O)C(O)(Cc1cccnc1)P(=O)(O)O [RISEDRONIC ACID] | 1.31
CN1CCN(C(=O)OC2c3nccnc3C(=O)N2c2ccc(Cl)cn2)CC1 (configuration not stated) [ZOPICLONE] | 0.1
CC1(C)C[C@@H]1C(=O)N/C(=C\CCCCSC[C@H](N)C(=O)O)C(=O)O [CILASTATIN] | 0.41
CC(=O)Oc1ccccc1C(=O)O [ASPIRIN] | 0.24
CCOC(=O)C1=C(C)NC(C)=C(C(=O)OC)C1c1cccc([N+](=O)[O-])c1 (configuration not stated) [NITRENDIPINE] | 0.25
Cc1cn([C@H]2C=C[C@@H](CO)O2)c(=O)[nH]c1=O [STAVUDINE] | 3.53
OCCN1CCN(CCCN2c3ccccc3Sc3ccc(Cl)cc32)CC1 [PERPHENAZINE] | 5
Nc1nc(N)c2nc(-c3ccccc3)c(N)nc2n1 | 2.77
